Measured values as given in patent US6046228A, “Anti-viral pharmaceutical compositions containing saturated 1,2-dithiaheterocyclic compounds and uses thereof” (priority 1999, dated 2000).
Values joined by “and” are separate entries in the source; they are usually repeats but may differ in a detail not shown here. Equal values may be shown once. Read-outs that look alike come from different tables or passages of the source.

Key:
[1] = system: CEM-SS cells; assay: XTT assay, cytotoxicity (IC50), CEM-SS cells; format: cell-based
Description: (§1) Initial anti-HIV screening was performed with CEM-SS cells and HIV-1RFusing the XTT cytoprotection assay as previously described (Weislow et al., J. National Cancer Inst. 81: 577-586, (1989)). HIV-1 isolates included common laboratory stains (RF, IIIB and MN), as well as a panel of HIV-1 clinical isolates (Cushman et al., J. Med. Chem. 37: 3040-3050, (1994)). The pyridone-resistant HIV-1A17 isolate (Nunberg et al., J. Virol., 65: 4887-4892 (1991)) was obtained from Emilio Emini at Merck Sharpe and Dohme Laboratories. Phytohemagglutinin-stimulated human peripheral blood lymphocytes (PBLs) and fresh monocyte-macrophage (Mono/MF) cultures were prepared and utilized in antiviral assays as previously described (Rice et al., Proc. Nat'l. Academy Science, USA 90: 9721-9724, (1993)); (Cushman et al., J. Med. Chem. 37: 3040-3050, (1994)). EC50 values for these cultures indicate the drug concentration that provided a 50% reduction in viral p24 production. […] The compounds can be synthesized according to the teachings of Singh et al., Sulfur Letters 8: 107-114, (1988). […] MT-2, MT-4, U1, HeLa-CD4-LTR-β-gal and 174xCEM cells were obtained from the AIDS Research and Reference Program (National Institute of Allergy and Infectious Disease, National Institutes of Health, Bethesda, Md. USA), as were the HIV-2MS and the AZT-resistant HIV-1G910-6 isolates.
(§2) Racemate and enantiomers of the cis-1,1-dioxo[1,2]dithiane-4,5-diol were synthesized and evaluated for antiviral activity in the XTT assay as described hereinabove.

[2] = target: T1, HIV-1 integrase (Human immunodeficiency virus type 1 group M subtype B, UniProt P04585); assay: HIV-1 integrase activity; format: biochemical; settings: Table 6
T1 construct: the purified HIV-1 protease and integrase enzymes

[3] = target: T2, HIV-1 p7NC protein (Human immunodeficiency virus type 1 group M subtype B, UniProt P04591); assay: Trp37 zinc finger fluorescence assay (zinc ejection from p7NC); format: biochemical; settings: for p7NC Trp37 Assay (RFU): 25 μM compound
T2 construct: recombinant HIV-1 p7NC protein
Description: Fluorescence measurements of the Trp^37 residue in the C-terminal zinc finger of the recombinant HIV-1 p7NC protein were performed as previously described (Rice et al., Science 270:1194, 1995). The p7NC protein was prepared at 20 μg/ml in 10 mM sodium phosphate buffer (pH 7.0), treated with 25 μM of each compound, then after indicated time intervals the samples were diluted 1/10 in 10 mM sodium phosphate buffer (pH 7.0) and the fluorescence intensity measured. The excitation and emission wavelengths utilized with the Shimadzu RF5000 spectrofluorimeter were 280 nm and 351 nm, respectively. In an alternate assay, the zinc-selective fluorescent probe N-(6-methoxy-8quinolyl-)-p-toluenesulfonamide (TSQ, Molecular Probes, Eugene, Oreg.) originally described by Fredrickson (J. Neurosci. Meth. 20:91, 1987) was utilized to measure zinc released from the p7NC protein in vitro. Briefly, 2 μM recombinant HIV-1 p7NC protein in 10 mM sodium phosphate buffer, pH 7.0, 10% glycerol was treated with 10 μM 624151 ([…] total volume in 96-well plates), and the time-dependent increase in fluorescence was measured on a Labsystems Fluoroskan II (360 nm excitation filter and 460 nm emission filter) over a period of 2 hours. Induction of alterations of p7NC proteins within intact virions involved treatment of HIV-1MN for 1 hour at 37° C. with 25 μM test compound. Samples were centrifuged 1 hour at 4° C. under 18,000×g to pellet the virus from the drug. Virus pellets were resolved by non-reducing SDS-PAGE and analyzed by immunoblot using monospecific rabbit antisera to the purified p7NC protein.
^b The percent decrease in RFU was calculated based on measurement of
the initial fluorescence of the p7NC protein before and 10 minutes after
treatment with the 25 μM of compound at ambient temperature.
The ability of 624151 to chemically interact with the zinc fingers of the HIV-1 p7NC protein was initially determined by a fluorescence assay (Rice et al., Science 270:1194-1197, (1995)) that measures a loss in intrinsic fluorescence of the tryptophan (Trp^37) residue in the second finger of the protein that occurs upon loss of zinc from the finger (Summers et al., Protein Sci. 1:563, 1992). […] As the 624151 modifies the zinc finger thiolates and the zinc is ejected over time, the metal is bound by the TSQ fluorochrome (FIG. 1(B)).
Sodium Phosphate buffer, pH 7.0 in 1 ml was treated with 25 μM of
compound. At indicated times, the mixture was diluted 1/10 and the
relative fluorescence units (RFU) measured in a Shimadzu RF5000
spectrofluorimeter with […] and Em = 351 mn. Following
loss of zinc from the Cterminal zinc finger, the Trp37 residue folds away
from the # aqueous environment and experiences a loss of fluorescence.

[4] = system: HIV-1RF; assay: XTT cytoprotection (cytopathicity) anti-HIV assay, CEM-SS cells; format: cell-based
Description: as §1, §2

[5] = system: attachment of HIV-1 to fresh human PBLs; assay: virus attachment assay, HIV-1RF to PBLs (p24-based); format: cell-based; settings: control; 30 min
Description: Binding of HIV-1RF to PBLs was measured by a p24-based assay (Rice, et al., Proc. Nat'l. Academy of Science USA 90: 9721-9724, (1993)). Briefly, 5×10^5 PBLs were incubated with a concentrated stock of virus for 30 min. at 37° C. in the absence or presence of various concentrations of 624151, the unbound virus was washed away, and the cell-associated virus was solubilized in 1% Triton X-100, 1% BSA and analyzed by the p24 antigen capture assay as previously described. The binding of gp120to CD4 was analyzed using an antigen capture ELISA. All steps of the assay were carried out according to the manufacturer's protocols.
^.dagger. Attachment of HIV1 to fresh human PBLs, binding of gp120 to […]

[6] = target: T3, HIV-1 p66-p51 RT (Human immunodeficiency virus type 1 group M subtype B, UniProt P04585); assay: reverse transcriptase activity assay; format: biochemical; settings: nonphosphorylated control, in words
T3 construct: the purified HIV-1 p66-p51 RT enzyme
Description: The effects of 624151 on the in vitro activity of purified RT was determined by measurement of incorporation of [^3 H]TTP onto the poly(rA):oligo(dT)(rAdT) or poly(rC):oligo(dG)(rCdG) homopolymer template/primer systems. Samples (5 μL) were blotted onto DE81 paper, washed with 5% dibasic sodium phosphate as previously described (Buckheit et al., Antiviral Res. 21:247, (1993)), and then quantitated on a Packard Matrix 9600 dual beam counter. 3'-Azido-3'-deoxythymidine-5 '-triphosphateand UC38 (NSC 629243) served as positive controls for inhibition of RT. HIV-1 protease activity was quantitated by a reversed phase HPLC assay utilizing the […]Amide substrate (Multiple Peptide Systems, San Diego, Calif.) as previously described in Rice et al. (Proc. Nat'l. Academy of Science USA 9: 9721-9724, (1993)).

[7] = system: HIV-1RF; assay: effect of increasing multiplicity of infection, CEM-SS cells; format: cell-based; settings: for EC50: Human immunodeficiency virus 1, CEM-SS
Description: Initial anti-HIV screening was performed with CEM-SS cells and HIV-1RFusing the XTT cytoprotection assay as previously described (Weislow et al., J. National Cancer Inst. 81: 577-586, (1989)). HIV-1 isolates included common laboratory stains (RF, IIIB and MN), as well as a panel of HIV-1 clinical isolates (Cushman et al., J. Med. Chem. 37: 3040-3050, (1994)). The pyridone-resistant HIV-1A17 isolate (Nunberg et al., J. Virol., 65: 4887-4892 (1991)) was obtained from Emilio Emini at Merck Sharpe and Dohme Laboratories. Phytohemagglutinin-stimulated human peripheral blood lymphocytes (PBLs) and fresh monocyte-macrophage (Mono/MF) cultures were prepared and utilized in antiviral assays as previously described (Rice et al., Proc. Nat'l. Academy Science, USA 90: 9721-9724, (1993)); (Cushman et al., J. Med. Chem. 37: 3040-3050, (1994)). EC50 values for these cultures indicate the drug concentration that provided a 50% reduction in viral p24 production. […] The compounds can be synthesized according to the teachings of Singh et al., Sulfur Letters 8: 107-114, (1988). The 4,5-cis-dihydroxy(1,1-dioxy-1,2,-dithiohexane) compound (NSC 624151) has been abbreviated as 624151 for convenience. MT-2, MT-4, U1, HeLa-CD4-LTR-β-gal and 174xCEM cells were obtained from the AIDS Research and Reference Program (National Institute of Allergy and Infectious Disease, National Institutes of Health, Bethesda, Md. USA), as were the HIV-2MS and the AZT-resistant HIV-1G910-6 isolates.

[8] = Homo sapiens, CEM-SS, Table 5, cytotoxicity, read-out: IC50 Mean
[9] = Human immunodeficiency virus 1, CEM-SS, Table 5, read-out: EC50 Mean

O=S1(=O)C[C@H](O)[C@H](O)CS1 (single isomer, unassigned) [NSC 693195, (-)-cis-4,5-Dihydroxy-1,2-dithiane 1,1-dioxide]
IC50 ([1]; Table 5, cytotoxicity, listed as 693195, read-out: IC50 Duplicates): 129 µM and 135 µM
IC50 ([1]; Table 5, cytotoxicity, listed as 693195, read-out: IC50 Mean): 132 µM
IC50 ([1]; cytotoxicity, CEM-SS cells, read-out: XTT Assay IC50): 132 µM
inhibition of HIV-1 integrase [2]: NI100
p7NC Trp37 Assay (RFU) ([3]; 0 min, listed as 693195): 279 RFU
p7NC Trp37 Assay (RFU) ([3]; 3 min, listed as 693195): 117 RFU
p7NC Trp37 Assay (RFU) ([3]; 10 min, listed as 693195): 69 RFU
p7NC Trp37 Assay (RFU) ([3]; 30 min, listed as 693195): 45 RFU
EC50 ([4]; CEM-SS cells, HIV-1RF, read-out: XTT Assay EC50): 8.8 µM
EC50 ([4]; Table 5, listed as 693195, read-out: EC50 Duplicates): 9.04 µM and 8.64 µM
EC50 ([4]; Table 5, listed as 693195, read-out: EC50 Mean): 8.8 µM
EC50 relative to enantiomer or racemate ([4]; in words): about half that of the (+) enantiomer

dextran sulfate [reference compound]
IC50 Duplicates ([1]; Table 5, cytotoxicity): > 95 µg/mL
IC50 Mean ([1]; Table 5, cytotoxicity): > 95 µg/mL
EC50 Mean ([4]; Table 5): 0.76 µg/mL
virion binding ID50 [5]: 1.8 µg/mL

Cc1cn([C@H]2C[C@H](N=[N+]=[N-])[C@@H](CO)O2)c(=O)[nH]c1=O [AZT, 3'-azido-3'-deoxythymidine]
IC50 [1, 8]: > 1 µM
inhibition of RT activity [6]: not inhibitory
loss of Trp37 fluorescence of p7NC ([3]; FIG. 1(A), 25 μM, in words): not by AZT control
EC50 ([7]; MOI 0.01): 0.019 µM
EC50 ([7]; MOI 0.02): 0.024 µM
EC50 ([7]; MOI 0.04): 1.57 µM
EC50 ([7]; MOI 0.08): > 10 µM
EC50 ([7]; MOI 0.16): > 10 µM
EC50 ([7]; MOI 0.32): > 10 µM
EC50 ([7]; lowest MOI): 0.0189 µM
effect of increasing the MOI on activity ([7]; in words): completely inactive after only a six-fold increase in the MOI
EC50 ([4]; Human immunodeficiency virus 1, CEM-SS, Table 5, read-out: EC50 Duplicates): 0.0054 µM
EC50 [4, 9]: 0.0056 µM
EC50 ([4]; Table 5, read-out: EC50 Duplicates): 0.0057 µM

O=S1(=O)C[C@H](O)[C@H](O)CS1 (single isomer, unassigned) [NSC 693194, (+)-cis-4,5-Dihydroxy-1,2-dithiane 1,1-dioxide]
IC50 ([1]; Homo sapiens, CEM-SS, Table 5, cytotoxicity, read-out: IC50 Duplicates): 134 µM
IC50 [1, 8]: 134 µM
IC50 ([1]; Homo sapiens, CEM-SS, cytotoxicity, CEM-SS cells, read-out: XTT Assay IC50): 134 µM
IC50 ([1]; Table 5, cytotoxicity, listed as 693194, read-out: IC50 Duplicates): 133 µM
inhibition of HIV-1 integrase [2]: NI100
p7NC Trp37 Assay (RFU) ([3]; 0 min, listed as 693194): 280 RFU
p7NC Trp37 Assay (RFU) ([3]; 3 min, listed as 693194): 146 RFU
p7NC Trp37 Assay (RFU) ([3]; 10 min, listed as 693194): 75 RFU
p7NC Trp37 Assay (RFU) ([3]; 30 min, listed as 693194): 41 RFU
EC50 ([4]; Human immunodeficiency virus 1, CEM-SS, CEM-SS cells, HIV-1RF, read-out: XTT Assay EC50): 16 µM
EC50 [4, 9]: 16.2 µM
EC50 ([4]; Table 5, listed as 693194, read-out: EC50 Duplicates): 18.6 µM and 13.7 µM
